Source: PubChem BioAssay AID1963429 (Molecular Pharmacology Branch, DTP, NCI, 2024)
One block for each compound: values may come before it.

Tested on: 126254-015-R-J1-PDC complex spheroid growth, % test/control
Assay: Anticancer human tumor 126254-015-R-J1-PDC patient-derived soft tissue sarcoma cell line growth inhibition [Asc]
Details: for IC50: curve of first compound; for viability, T/C: stronger effect = lower value
Description: Multicellular complex tumor spheroid response to apoptosis pathway targeting inhibitors Alrizomadlin, Pelcitoclax, and Dasminapant in combination with a variety of drugs and investigational agents in selected tumor cell lines
The MDM2 inhibitor alrizomadlin, the Bcl-2/Bcl-xL inhibitor pelcitoclax, and the IAPs inhibitor dasminapant were evaluated both individually and in combination with standard of care and investigational anticancer small molecules within a complex spheroid model of solid tumors. . Complex spheroids include a stromal component modeled by human endothelial cells (HUVEC) and fibroblasts modeled by human mesenchymal stem cells (MSCs). The concentration ranges selected for each drug and investigational agent were based upon clinically achievable concentrations if the clinical Cmax of the agent was known.
Compounds. The drugs and investigational agents: alrizomadlin (APG-115; NSC831270), pelcitoclax (APG-1252; NSC835773), dasminapant (APG-1387;NSC834197), TAK-243 (NSC785004), copanlisib (NSC809693), olaparib (NSC753686), talazoparib (NSC767125), cobimetinib (NSC 768068), eltanexor (KPT-8602, NSC 794443), abemaciclib (NSC 768073), sotorasib (NSC818433), adagrasib (NSC 831453), MRTX-1133 (NSC 836407), Iadademestat (ORY1001, NSC 806812), and RMC-4630 (NSC839698), were obtained from the NCI Developmental Therapeutics Program Chemical Repository. The FDA-approved anticancer drug set is available from the Developmental Therapeutics Program at https://dtp.cancer.gov/organization/dscb/obtaining/available plates.htm. […] The stock solutions were prepared in dimethyl sulfoxide (DMSO, Sigma-Aldrich, St. Louis, MO, cat. D2650) at 800-fold the tested concentration and stored at -70 degrees C prior to their use. All drugs and investigational agents were tested over a range starting from a high concentration at or near the clinical Cmax and decreasing in half-log increments. If the clinical Cmax for an agent had not been determined, the highest concentration tested was 10 microM.
The patient-derived cancer (PDC) cell lines include five colon adenocarcinomas: 186277-243-T-J2-PDC, 616215-338-R-J1-PDC, 439559-082-T-J2-PDC, 463943-066-T-J2-PDC, and 519858-162-T-J1-PDC; three pancreatic carcinomas: 323965-272-R-J2-PDC, 521955-158-R6-J3-PDC, and 521955-158-R2-J5-PDC; two uterine sarcomas: 327498-152-R-J2-PDC and 993429-296-R-J1-PDC; two rhabdomyosarcomas: 755483-174-R-J1-PDC and 772245-204-R-J1-PDC; two soft tissue sarcomas: 126254-015-R-J1-PDC and 494315-158-R-J1-PDC; two malignant fibrous histiocytomas: 317291-083-R-J1-PDC and 596521-263-R-J1-PDC; two breast carcinomas: 171881-019-R-J1-PDC and 885512-296-R-J2-PDC; and one ovarian carcinoma: 6556581-035-R-J-PDC were obtained from the NCI PDMR, (https://pdmr.cancer.gov). The established cell lines HSSY-2 synovial sarcoma (RRID:CVCL 8719), SYO-1 synovial sarcoma (RRID:CVCL_7146), MPNST malignant peripheral neural sheath tumor were obtained from the Sloan Kettering Institute. The following established cell lines were purchased from the American Type Culture Collection (ATCC, Manassas, VA), Sor the received from the NCI repository:, PANC-1 pancreatic carcinoma (CRL-1469, RRID:CVCL_0480), OVCAR-5 ovarian carcinoma (RRID:CVCL_1628), OVCAR-8 ovarian carcinoma (RRID:CVCL_1629), , MCF-7 breast carcinoma (CRL-12584, RRID:CVCL_0031), MDA-MB-231 breast carcinoma (CRL-12532, RRID:CVCL_0062), NCI-H1876 small cell lung carcinoma (CRL-5902, RRID:CVCL_1503), NCI-H510A small cell lung carcinoma (HTB-184, RRID:CVCL_1565), NCI-H1417 (CRL-5869, RRID:CVCL_1469), and NCI-H196 small cell lung carcinoma (CRL-5823, RRID:CVCL_1509). Dr. Peter Houghton (Greehey Children's Cancer Research Institute, University of Texas Health Science Center, San Antonio, TX) provided Rh-18 rhabdomyosarcoma (RRID:CVCL_1659). Pooled donor human umbilical vein endothelial cells (HUVEC, Lonza, cat. CC-2519) and human mesenchymal stem cells (hMSC, Lonza, cat. PT-2501) were purchased from Lonza (Walkersville, MD).
Cell Culture. […]
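Further: spheroids exposed to compound for seven days.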
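Wherever viability, T/C is given: 100% = DMSO vehicle control wells.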

IC50 (second compound 0.03 µM): 2.43 µM
IC50 (second compound 0.0949 µM): 2.64 µM
IC50 (second compound 0.3 µM): 2.73 µM
IC50 (second compound 0.949 µM): 2.74 µM
IC50 (second compound 3 µM): 2.92 µM
Compound: C=C(F)C(=O)N1CCN(c2nc(OCC3CCCN3C)nc3c2CCN(c2cccc4cccc(Cl)c24)C3)CC1CC#N (stereo not given) + CCN1C(C(=O)NC23CCC(C(=O)O)(CC2)CC3)C(c2cccc(Cl)c2F)C2(C(=O)Nc3cc(Cl)ccc32)C12CCCCC2
viability, T/C (second compound 0.03 µM, first compound 0.0316 µM): 105%
viability, T/C (second compound 0.03 µM, first compound 0.1 µM): 103%
viability, T/C (second compound 0.03 µM, first compound 0.316 µM): 102%
viability, T/C (second compound 0.03 µM, first compound 1 µM): 95.9%
viability, T/C (second compound 0.03 µM, first compound 3.16 µM): 36.5%
viability, T/C (second compound 0.03 µM, first compound 10 µM): 0.16%
viability, T/C (second compound 0.0949 µM, first compound 0.0316 µM): 101%
viability, T/C (second compound 0.0949 µM, first compound 0.1 µM): 104%
viability, T/C (second compound 0.0949 µM, first compound 0.316 µM): 94.9%
viability, T/C (second compound 0.0949 µM, first compound 1 µM): 93.8%
viability, T/C (second compound 0.0949 µM, first compound 3.16 µM): 41.9%
viability, T/C (second compound 0.0949 µM, first compound 10 µM): 0.16%
viability, T/C (second compound 0.3 µM, first compound 0.0316 µM): 101%
viability, T/C (second compound 0.3 µM, first compound 0.1 µM): 105%
viability, T/C (second compound 0.3 µM, first compound 0.316 µM): 97.4%
viability, T/C (second compound 0.3 µM, first compound 1 µM): 93.9%
viability, T/C (second compound 0.3 µM, first compound 3.16 µM): 43.6%
viability, T/C (second compound 0.3 µM, first compound 10 µM): 0.16%
viability, T/C (second compound 0.949 µM, first compound 0.0316 µM): 107%
viability, T/C (second compound 0.949 µM, first compound 0.1 µM): 123%
viability, T/C (second compound 0.949 µM, first compound 0.316 µM): 100%
viability, T/C (second compound 0.949 µM, first compound 1 µM): 101%
viability, T/C (second compound 0.949 µM, first compound 3.16 µM): 42.7%
viability, T/C (second compound 0.949 µM, first compound 10 µM): 0.17%
viability, T/C (second compound 3 µM, first compound 0.0316 µM): 104%
viability, T/C (second compound 3 µM, first compound 0.1 µM): 114%
viability, T/C (second compound 3 µM, first compound 0.316 µM): 103%
viability, T/C (second compound 3 µM, first compound 1 µM): 98.9%
viability, T/C (second compound 3 µM, first compound 3.16 µM): 46.3%
viability, T/C (second compound 3 µM, first compound 10 µM): 0.21%

IC50 (second compound 0.01 µM): 0.052 µM
IC50 (second compound 0.0316 µM): 0.0533 µM
IC50 (second compound 0.1 µM): 0.0323 µM
IC50 (second compound 0.316 µM): 0.0199 µM
IC50 (second compound 1 µM): 0.0158 µM
Compound: COc1c(OCCCN2CCOCC2)ccc2c3n(c(=NC(=O)c4cnc(N)nc4)nc12)CCN3 + CNC(C)C(=O)NC1CN(S(=O)(=O)c2cccc(S(=O)(=O)N3CCC4CCC(C(=O)NC(c5ccccc5)c5ccccc5)N4C(=O)C(NC(=O)C(C)NC)C3)c2)CCC2CCC(C(=O)NC(c3ccccc3)c3ccccc3)N2C1=O
viability, T/C (second compound 0.01 µM, first compound 0.00316 µM): 84.8%
viability, T/C (second compound 0.01 µM, first compound 0.01 µM): 82.4%
viability, T/C (second compound 0.01 µM, first compound 0.0316 µM): 57.8%
viability, T/C (second compound 0.01 µM, first compound 0.1 µM): 37.3%
viability, T/C (second compound 0.01 µM, first compound 0.316 µM): 20.1%
viability, T/C (second compound 0.01 µM, first compound 1 µM): 12.5%
viability, T/C (second compound 0.0316 µM, first compound 0.00316 µM): 74.8%
viability, T/C (second compound 0.0316 µM, first compound 0.01 µM): 73.2%
viability, T/C (second compound 0.0316 µM, first compound 0.0316 µM): 60.7%
viability, T/C (second compound 0.0316 µM, first compound 0.1 µM): 36.6%
viability, T/C (second compound 0.0316 µM, first compound 0.316 µM): 19.3%
viability, T/C (second compound 0.0316 µM, first compound 1 µM): 11.4%
viability, T/C (second compound 0.1 µM, first compound 0.00316 µM): 66.1%
viability, T/C (second compound 0.1 µM, first compound 0.01 µM): 63.5%
viability, T/C (second compound 0.1 µM, first compound 0.0316 µM): 47.9%
viability, T/C (second compound 0.1 µM, first compound 0.1 µM): 36%
viability, T/C (second compound 0.1 µM, first compound 0.316 µM): 17.5%
viability, T/C (second compound 0.1 µM, first compound 1 µM): 11.2%
viability, T/C (second compound 0.316 µM, first compound 0.00316 µM): 60.8%
viability, T/C (second compound 0.316 µM, first compound 0.01 µM): 54.6%
viability, T/C (second compound 0.316 µM, first compound 0.0316 µM): 47.8%
viability, T/C (second compound 0.316 µM, first compound 0.1 µM): 29.1%
viability, T/C (second compound 0.316 µM, first compound 0.316 µM): 18.2%
viability, T/C (second compound 0.316 µM, first compound 1 µM): 9.08%
viability, T/C (second compound 1 µM, first compound 0.00316 µM): 53.7%
viability, T/C (second compound 1 µM, first compound 0.01 µM): 56.6%
viability, T/C (second compound 1 µM, first compound 0.0316 µM): 43.6%
viability, T/C (second compound 1 µM, first compound 0.1 µM): 28.3%
viability, T/C (second compound 1 µM, first compound 0.316 µM): 15.6%
viability, T/C (second compound 1 µM, first compound 1 µM): 9.01%
